Experimental data: patent publication US7297700B2, “Bicycloheteroaryl compounds as P2X7 modulators and uses thereof” (Renovis, Inc., priority 2005, dated 2007)

The molecules below were run on IL-1β release from THP-1 cells (assay: IL-1β Release Assay (Alternate Method), THP-1 cells). Details: Homo sapiens; at 0.3 μM; THP-1 cells; read-out: IL-1β % inhibition.
Type: cell-based, human
Summary of the method: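 IL-1β release, measured by ELISA, follows 45 min BzATP (250 uM final) stimulation of THP-1 cells given 30 min compound pretreatment. Cells were first primed 16 h with LPS and IFN-γ (100 ng/mL each), then 2 h with fresh LPS; inhibition expressed in percent after background correction.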

Structure (SMILES)	inhibition at 0.3 µM [%]
CC(C)(C(=O)Nc1ncnc2c1CCN(C(=O)c1c(F)cccc1F)C2)C12CC3CC(CC(C3)C1)C2 [Compound 361]	0 to 25

Same assay, conditions: at 0.3 μM; THP-1 cells

Structure (SMILES)	IL-1β % inhibition
CC12CC3(C)CC(C)(C1)CC(C(C)(C)C(=O)Nc1ncnc4c1CCN(Cc1ccccc1)C4)(C2)C3 [Compound 345]	+ (compound exhibited 0-25% inhibition at 0.3 μM)
O=C(CC12CC3CC(CC(C3)C1)C2)Nc1ncnc2c1CCN(Cc1ccc3[nH]ccc3c1)C2 [Compound 64]	+ (compound exhibited 0-25% inhibition at 0.3 μM)
O=C(CC12CC3CC(CC(C3)C1)C2)Nc1ncnc2c1CCN(S(=O)(=O)c1cccc(C(F)(F)F)c1)C2 [Compound 154]	++++ (compound exhibited 75% or greater inhibition at 0.3 μM)
O=C(CC12CC3CC(CC(C3)C1)C2)Nc1ncnc2c1CCN(C(=O)CCc1ccccc1)C2 [Compound 248]	+ (compound exhibited 0-25% inhibition at 0.3 μM)
COc1ccc(Oc2ccc(S(=O)(=O)N3CCc4c(ncnc4NC(=O)CC45CC6CC(CC(C6)C4)C5)C3)cc2)cc1 [Compound 175]	+++ (compound exhibited 50-75% inhibition at 0.3 μM)
O=C(CC12CC3CC(CC(C3)C1)C2)Nc1ncnc2c1CCN(S(=O)(=O)c1ccc(Cl)c(Cl)c1)C2 [Compound 155]	+ (compound exhibited 0-25% inhibition at 0.3 μM)
O=C(CC12CC3CC(CC(C3)C1)C2)Nc1ncnc2c1CCN(Cc1ccc(-c3ccccn3)cc1)C2 [Compound 65]	+ (compound exhibited 0-25% inhibition at 0.3 μM)
CC(C)(C(=O)Nc1ncnc2c1CCN(C(=O)c1cc(F)ccc1F)C2)C12CC3CC(CC(C3)C1)C2 [Compound 363]	+ (compound exhibited 0-25% inhibition at 0.3 μM)
CC12CC3CC(C)(C1)CC(CC(=O)Nc1ncnc4c1CCN(Cc1ccc5c(c1)OCCO5)C4)(C3)C2 [Compound 373]	++++ (compound exhibited 75% or greater inhibition at 0.3 μM)
CC(C)(C(=O)Nc1ncnc2c1CCN(Cc1ccc(F)cc1F)C2)C12CC3CC(CC(C3)C1)C2 [Compound 347]	+ (compound exhibited 0-25% inhibition at 0.3 μM)
CC(C)(C(=O)Nc1ncnc2c1CCN(S(=O)(=O)c1ccc(F)c(F)c1)C2)C12CC3CC(CC(C3)C1)C2 [Compound 355]	+ (compound exhibited 0-25% inhibition at 0.3 μM)
Cc1cc(C(=O)N2CCc3c(ncnc3NC(=O)CC34CC5CC(CC(C5)C3)C4)C2)no1 [Compound 283]	+++ (compound exhibited 50-75% inhibition at 0.3 μM)
O=C(O)COc1ccccc1CN1CCc2c(ncnc2NC(=O)CC23CC4CC(CC(C4)C2)C3)C1 [Compound 141]	+ (compound exhibited 0-25% inhibition at 0.3 μM)
O=C(CC12CC3CC(CC(C3)C1)C2)Nc1ncnc2c1CCN(Cc1ccc(F)cc1)C2 [Compound 123]	+ (compound exhibited 0-25% inhibition at 0.3 μM)
O=C(CC12CC3CC(CC(C3)C1)C2)Nc1ncnc2c1CCN(Cc1ccccc1Cl)C2 [Compound 27]	+++ (compound exhibited 50-75% inhibition at 0.3 μM)
CC(C)(C)C(=O)N1CCc2c(ncnc2NC(=O)CC23CC4CC(CC(C4)C2)C3)C1 [Compound 252]	++ (compound exhibited 25-50% inhibition at 0.3 μM)
O=C(CC12CC3CC(CC(C3)C1)C2)Nc1ncnc2c1CCN(S(=O)(=O)c1cccc(OC(F)(F)F)c1)C2 [Compound 161]	++ (compound exhibited 25-50% inhibition at 0.3 μM)
O=C(CC12CC3CC(CC(C3)C1)C2)Nc1ncnc2c1CCN(Cc1ccc(C(F)(F)F)cc1)C2 [Compound 72]	+ (compound exhibited 0-25% inhibition at 0.3 μM)
CCc1ccc(C(=O)N2CCc3c(ncnc3NC(=O)CC34CC5CC(CC(C5)C3)C4)C2)cc1 [Compound 229]	+++ (compound exhibited 50-75% inhibition at 0.3 μM)

Same assay, conditions: at 0.3 μM; THP-1 cells, BzATP-stimulated

Structure (SMILES)	IL-1β % inhibition
CCOc1ccc(CN2CCc3c(ncnc3NC(=O)C34CC5CC(CC(C5)C3)C4)C2)cc1 [Compound 630]	++++ (compound exhibited 75% or greater inhibition at 0.3 μM)
O=C(Nc1ncnc2c1CCN(S(=O)(=O)c1cc(Cl)ccc1F)C2)C12CC3CC(CC(C3)C1)C2 [Compound 539]	++ (compound exhibited 25-50% inhibition at 0.3 μM)
O=C(Nc1ncnc2c1CCN(Cc1ccc(Br)nc1)C2)C12CC3CC(CC(C3)C1)C2 [Compound 613]	+ (compound exhibited 0-25% inhibition at 0.3 μM)
O=C(Nc1ncnc2c1CCN(Cc1ccc(Cl)cc1)C2)C12CC3CC(CC(C3)C1)C2 [Compound 601]	+++ (compound exhibited 50-75% inhibition at 0.3 μM)
Cc1noc(C)c1S(=O)(=O)N1CCc2c(ncnc2NC(=O)C23CC4CC(CC(C4)C2)C3)C1 [Compound 503]	+ (compound exhibited 0-25% inhibition at 0.3 μM)
